Assay results reported in ChEMBL document CHEMBL1201862, “PubChem BioAssay data set” (2004).
The source made the active and inactive calls.

Tests used:
Genome polyprotein = Genome polyprotein (Hepatitis C virus, UniProt Q2Q167); experiment: disruption of hepatitis C core self-association – biochemical, TR-FRET, dose response (AID 2159); design: species or system Hepacivirus hominis;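 note: blocks dimerization of HCV core protein measured by TR-FRET between tagged core106 pairs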
[1] = target: E3 ubiquitin-protein ligase Mdm2 (Homo sapiens, UniProt Q00987); experiment: MDM2-luc reporter signal enhancers, multi-concentration potency testing, MDM2 ubiquitin-protein ligase inhibitor program, whole-cell format, luminescence detection, 384-well microplate (AID 1394); assay type: functional;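 note: MDM2 E3 inhibitors raise luminescence so EC50 is for signal enhancement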
[2] = HPDE-C7 pancreatic duct cell viability loss – fluorescence, HTS (AID 430); assay type: functional, cell-based; settings: Homo sapiens
[3] = viability loss of HPDE-C7K cells – cell-based, fluorescence, HTS, primary screen (AID 431); assay type: functional; settings: Homo sapiens
[4] = viability of PTEN-deleted HCT116 cells – cell-based, HCT116 PTEN knockout, dose response (AID 1047); assay type: functional;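 note: HCT116 colon tumor cells with PTEN knocked out; cells exposed to compound for 60 hours before readout; potency for loss of cell viability measured by luminescence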
[5] = viability of HCT116 lacking mutant beta-catenin – cell-based, human colon tumor, dose response (AID 1045); assay type: functional;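 note: HCT116 colon tumor cells with beta catenin knocked out; cells exposed to compound for 60 hours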
[6] = HEK-293T cell viability reduction – luminescence, B-cell screen hits, cytotoxicity control for BCR NF-kB inhibitor project, dose response (AID 489021); assay type: functional, cell-based;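 note: HEK-293T cells carrying an NF-kB luciferase reporter; cells exposed to compound for about 14 hours before viability readout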
[7] = target: T1, Hepatocyte nuclear factor 4-alpha (Homo sapiens, UniProt P41235); assay type: functional, cell-based;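 note: biochemical luminescence-based dose-response counterscreen measuring inhibition of HNF4 dimerization, run alongside a screen for blockers of ABHD5–perilipin-5 interaction; split luciferase complementation of HNF4 fusion proteins in cell lysate measuring dimerization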
T1 sequence (P41235 whole entry): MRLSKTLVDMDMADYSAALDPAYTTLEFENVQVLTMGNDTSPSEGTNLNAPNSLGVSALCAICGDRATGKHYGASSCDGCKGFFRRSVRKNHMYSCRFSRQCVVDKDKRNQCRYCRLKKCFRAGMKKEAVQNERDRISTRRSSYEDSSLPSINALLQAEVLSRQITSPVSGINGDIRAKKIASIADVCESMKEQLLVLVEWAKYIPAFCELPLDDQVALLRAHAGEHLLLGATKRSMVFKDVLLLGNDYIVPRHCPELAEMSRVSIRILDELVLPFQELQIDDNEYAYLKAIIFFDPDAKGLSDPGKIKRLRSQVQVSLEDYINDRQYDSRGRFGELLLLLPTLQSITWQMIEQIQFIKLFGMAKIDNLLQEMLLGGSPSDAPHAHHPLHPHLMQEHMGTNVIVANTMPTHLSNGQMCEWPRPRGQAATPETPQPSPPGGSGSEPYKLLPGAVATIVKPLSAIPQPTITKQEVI

[8] = viability loss in Vero cells – cytotoxicity control for Vif-APOBEC3G degradation inhibitor project, dose response (AID 1117358); assay type: functional; settings: Vero
[9] = Luminescence Cell-Based Dose Response to Identify Activators of 5'UTR Stem-Loop Driven Prion Protein mRNA Translation in H4-C Neuroglioblastoma Cells. [Related pubchem assays: 1829 (Project Summary), 1814 (Primary HTS)]; assay type: functional
[10] = Luminescence Cell-Based Dose Confirmation HTS to Identify Activators of 5'UTR Stem-Loop Driven Alpha-Synuclein mRNA Translation in H4 Neuroglioblastoma Cells. [Related pubchem assays: 1829 (Project Summary), 1814 (Primary HTS)]; assay type: functional
[11] = Luminescence Cell-Based Dose Response HTS to Identify Activators of Luciferase Translation or Activity in H4 […] Cells. [Related pubchem assays: 1829 (Project Summary), 1814 (Primary HTS)]; assay type: functional
H4 = experiment: Luminescence Cell-Based Dose Response HTS to Identify Activators of 5'UTR Stem-Loop Driven Prion Protein mRNA Translation in H4 Neuroglioblastoma Cells. [Related pubchem assays: 1829 (Project Summary), 1814 (Primary HTS)]; assay type: functional; settings: Homo sapiens
[12] = Luminescence Cell-Based Dose Response to Identify Activators of Luciferase Translation or Activity in H4-C Neuroglioblastoma Cells. [Related pubchem assays: 1829 (Project Summary), 1814 (Primary HTS)]; assay type: functional
[13] = Luminescence Cell-Based Dose Confirmation to Identify Activators of 5'UTR Stem-Loop Driven Alpha-Synuclein mRNA Translation in H4 Neuroglioblastoma Cells. [Related pubchem assays: 1829 (Project Summary), 1814 (Primary HTS)]; assay type: functional
[14] = target: Heat shock protein HSP 90-alpha (Homo sapiens, UniProt P07900); experiment: Luminescence-based dose response biochemical high throughput screening assay for inhibitors of the Heat Shock Protein 90 (HSP90). [Related pubchem assays: 1831 (Summary AID.), 1846 (Confirmation screen.), 1789 (Primary screen.)]
HEK293 [15] = experiment: inhibition of NOD1-driven NF-kB reporter – cell-based, luminescence, uHTS, primary screen (AID 1578); assay type: functional; settings: Homo sapiens
HEK293 [16] = experiment: cells; assay type: functional, cell-based; settings: Homo sapiens
HEK293 [17] = experiment: cells; assay type: functional, cell-based; settings: Homo sapiens; remark: listed apart in the source
HEK293 [18] = experiment: NOD2 signaling inhibitors in MDP-stimulated cells, cell-based, uHTS, luminescence (AID 2001); assay type: functional; settings: Homo sapiens
Tumor necrosis factor = Tumor necrosis factor (Homo sapiens, UniProt P01375); experiment: analog potency on TNFa NF-kB signaling – cell-based, revised, SAR follow-up (AID 2337); assay type: functional
[19] = target: T2, Nucleotide-binding oligomerization domain-containing protein 1 (Homo sapiens, UniProt Q9Y239); experiment: blockers of NOD1 pathway activity – revised, SAR follow-up (AID 2333); assay type: functional
T2 sequence (Q9Y239 whole entry): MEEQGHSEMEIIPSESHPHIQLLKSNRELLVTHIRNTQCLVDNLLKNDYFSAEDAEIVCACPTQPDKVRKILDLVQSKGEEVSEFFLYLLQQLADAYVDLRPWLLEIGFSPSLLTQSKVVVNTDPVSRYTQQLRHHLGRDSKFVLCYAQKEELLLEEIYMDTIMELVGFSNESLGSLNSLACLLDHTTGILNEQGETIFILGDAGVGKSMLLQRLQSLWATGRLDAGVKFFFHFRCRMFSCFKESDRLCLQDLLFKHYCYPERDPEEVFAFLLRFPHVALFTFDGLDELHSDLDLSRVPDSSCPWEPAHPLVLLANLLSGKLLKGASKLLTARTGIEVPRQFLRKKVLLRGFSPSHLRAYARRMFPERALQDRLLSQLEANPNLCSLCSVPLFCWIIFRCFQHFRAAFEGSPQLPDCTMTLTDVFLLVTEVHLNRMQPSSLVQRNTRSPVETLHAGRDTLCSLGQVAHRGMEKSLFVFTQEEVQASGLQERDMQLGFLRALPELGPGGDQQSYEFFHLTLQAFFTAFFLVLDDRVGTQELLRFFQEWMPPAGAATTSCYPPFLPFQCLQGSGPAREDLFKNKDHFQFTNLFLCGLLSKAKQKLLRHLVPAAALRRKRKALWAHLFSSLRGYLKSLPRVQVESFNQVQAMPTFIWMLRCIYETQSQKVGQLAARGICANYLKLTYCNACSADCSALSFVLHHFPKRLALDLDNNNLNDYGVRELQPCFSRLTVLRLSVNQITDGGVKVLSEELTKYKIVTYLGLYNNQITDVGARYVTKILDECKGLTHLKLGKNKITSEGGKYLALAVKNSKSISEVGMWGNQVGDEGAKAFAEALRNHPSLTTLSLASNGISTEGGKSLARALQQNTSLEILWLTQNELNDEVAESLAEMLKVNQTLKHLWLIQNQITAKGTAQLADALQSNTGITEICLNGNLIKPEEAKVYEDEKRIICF

ELAV-like protein 1 = ELAV-like protein 1 (Homo sapiens, UniProt Q15717); experiment: Identify HuR specific inhibitors.; assay type: functional
HEK293 [20] = experiment: cells; settings: Homo sapiens
[21] = target: Protein-tyrosine kinase 2-beta (Homo sapiens, UniProt Q14289);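 note: potency of inhibitors of PYK2 kinase phosphorylation of poly-GT substrate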
[22] = target: Voltage-dependent T-type calcium channel subunit alpha-1H (Homo sapiens, UniProt O95180); assay type: functional;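 note: channel activity triggered by adding a high calcium stimulation buffer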
Chain of Voltage-dependent T-type calcium channel subunit alpha-1H (O95180 whole entry): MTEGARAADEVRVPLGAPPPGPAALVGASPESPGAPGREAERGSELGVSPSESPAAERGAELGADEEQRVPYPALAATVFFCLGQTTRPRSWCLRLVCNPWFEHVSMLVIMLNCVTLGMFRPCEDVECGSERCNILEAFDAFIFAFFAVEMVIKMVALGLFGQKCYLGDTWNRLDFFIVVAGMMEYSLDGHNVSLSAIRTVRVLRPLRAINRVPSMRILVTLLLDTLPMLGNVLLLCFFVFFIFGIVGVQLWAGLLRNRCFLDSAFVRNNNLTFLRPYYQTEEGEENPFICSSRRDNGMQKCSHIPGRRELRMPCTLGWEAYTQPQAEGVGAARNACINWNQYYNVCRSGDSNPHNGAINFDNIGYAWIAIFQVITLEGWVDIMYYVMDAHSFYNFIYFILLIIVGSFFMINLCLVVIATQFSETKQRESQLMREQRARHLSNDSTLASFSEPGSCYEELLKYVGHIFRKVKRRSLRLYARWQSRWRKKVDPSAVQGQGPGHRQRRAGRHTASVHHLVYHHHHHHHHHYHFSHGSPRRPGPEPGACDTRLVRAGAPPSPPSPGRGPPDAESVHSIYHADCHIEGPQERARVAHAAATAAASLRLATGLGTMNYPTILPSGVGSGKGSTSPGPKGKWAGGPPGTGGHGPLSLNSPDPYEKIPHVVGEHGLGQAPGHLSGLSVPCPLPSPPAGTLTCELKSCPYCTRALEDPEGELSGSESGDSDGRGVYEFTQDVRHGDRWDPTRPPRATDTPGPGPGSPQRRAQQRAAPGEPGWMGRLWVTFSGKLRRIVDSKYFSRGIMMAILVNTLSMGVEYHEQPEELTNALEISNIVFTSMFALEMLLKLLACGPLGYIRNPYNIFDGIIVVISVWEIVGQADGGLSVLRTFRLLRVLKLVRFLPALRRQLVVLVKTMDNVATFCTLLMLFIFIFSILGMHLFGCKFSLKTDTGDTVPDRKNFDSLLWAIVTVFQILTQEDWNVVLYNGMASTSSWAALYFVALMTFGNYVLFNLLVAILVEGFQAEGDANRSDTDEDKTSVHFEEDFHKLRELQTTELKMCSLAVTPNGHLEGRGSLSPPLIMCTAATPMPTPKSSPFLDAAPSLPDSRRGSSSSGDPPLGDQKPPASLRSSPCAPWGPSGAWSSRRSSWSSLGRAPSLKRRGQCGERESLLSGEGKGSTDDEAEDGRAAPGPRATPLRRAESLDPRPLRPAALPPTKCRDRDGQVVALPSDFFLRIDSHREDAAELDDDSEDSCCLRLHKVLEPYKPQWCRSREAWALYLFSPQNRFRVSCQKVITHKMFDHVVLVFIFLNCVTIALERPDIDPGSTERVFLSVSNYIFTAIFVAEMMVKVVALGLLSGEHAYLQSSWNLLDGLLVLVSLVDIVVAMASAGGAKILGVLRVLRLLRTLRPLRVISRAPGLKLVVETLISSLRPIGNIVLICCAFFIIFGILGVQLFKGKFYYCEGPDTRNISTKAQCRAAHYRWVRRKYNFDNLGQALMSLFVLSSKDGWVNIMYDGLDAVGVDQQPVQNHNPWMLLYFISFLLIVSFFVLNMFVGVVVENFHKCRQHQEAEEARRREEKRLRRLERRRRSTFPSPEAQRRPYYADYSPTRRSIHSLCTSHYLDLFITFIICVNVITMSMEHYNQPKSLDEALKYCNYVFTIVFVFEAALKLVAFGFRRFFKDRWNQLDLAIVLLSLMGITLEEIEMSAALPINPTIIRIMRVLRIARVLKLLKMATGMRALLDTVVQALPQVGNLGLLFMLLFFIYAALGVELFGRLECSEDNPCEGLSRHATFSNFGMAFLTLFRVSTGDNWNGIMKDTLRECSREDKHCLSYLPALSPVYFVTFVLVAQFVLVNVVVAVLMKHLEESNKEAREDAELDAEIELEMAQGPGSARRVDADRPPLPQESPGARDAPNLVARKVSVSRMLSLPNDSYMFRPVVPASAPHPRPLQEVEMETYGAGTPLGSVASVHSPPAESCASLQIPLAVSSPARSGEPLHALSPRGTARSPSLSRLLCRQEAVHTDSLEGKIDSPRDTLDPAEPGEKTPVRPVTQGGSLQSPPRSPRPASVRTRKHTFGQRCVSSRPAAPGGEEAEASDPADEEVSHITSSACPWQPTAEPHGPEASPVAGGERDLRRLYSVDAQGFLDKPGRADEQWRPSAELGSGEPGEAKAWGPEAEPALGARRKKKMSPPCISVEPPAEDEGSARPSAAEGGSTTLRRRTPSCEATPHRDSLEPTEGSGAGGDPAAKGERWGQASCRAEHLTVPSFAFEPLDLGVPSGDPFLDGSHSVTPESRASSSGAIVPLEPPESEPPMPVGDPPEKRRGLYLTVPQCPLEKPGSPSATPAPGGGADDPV

Chain of Tumor necrosis factor (P01375 whole entry, the tested form may be a part): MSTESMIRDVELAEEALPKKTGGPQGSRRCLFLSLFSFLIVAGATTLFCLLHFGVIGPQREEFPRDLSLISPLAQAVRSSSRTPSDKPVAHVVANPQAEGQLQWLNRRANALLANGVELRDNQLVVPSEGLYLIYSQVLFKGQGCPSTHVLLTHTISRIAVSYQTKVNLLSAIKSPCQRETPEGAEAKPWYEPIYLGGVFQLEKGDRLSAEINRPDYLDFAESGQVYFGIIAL
Chain of Protein-tyrosine kinase 2-beta (Q14289 whole entry): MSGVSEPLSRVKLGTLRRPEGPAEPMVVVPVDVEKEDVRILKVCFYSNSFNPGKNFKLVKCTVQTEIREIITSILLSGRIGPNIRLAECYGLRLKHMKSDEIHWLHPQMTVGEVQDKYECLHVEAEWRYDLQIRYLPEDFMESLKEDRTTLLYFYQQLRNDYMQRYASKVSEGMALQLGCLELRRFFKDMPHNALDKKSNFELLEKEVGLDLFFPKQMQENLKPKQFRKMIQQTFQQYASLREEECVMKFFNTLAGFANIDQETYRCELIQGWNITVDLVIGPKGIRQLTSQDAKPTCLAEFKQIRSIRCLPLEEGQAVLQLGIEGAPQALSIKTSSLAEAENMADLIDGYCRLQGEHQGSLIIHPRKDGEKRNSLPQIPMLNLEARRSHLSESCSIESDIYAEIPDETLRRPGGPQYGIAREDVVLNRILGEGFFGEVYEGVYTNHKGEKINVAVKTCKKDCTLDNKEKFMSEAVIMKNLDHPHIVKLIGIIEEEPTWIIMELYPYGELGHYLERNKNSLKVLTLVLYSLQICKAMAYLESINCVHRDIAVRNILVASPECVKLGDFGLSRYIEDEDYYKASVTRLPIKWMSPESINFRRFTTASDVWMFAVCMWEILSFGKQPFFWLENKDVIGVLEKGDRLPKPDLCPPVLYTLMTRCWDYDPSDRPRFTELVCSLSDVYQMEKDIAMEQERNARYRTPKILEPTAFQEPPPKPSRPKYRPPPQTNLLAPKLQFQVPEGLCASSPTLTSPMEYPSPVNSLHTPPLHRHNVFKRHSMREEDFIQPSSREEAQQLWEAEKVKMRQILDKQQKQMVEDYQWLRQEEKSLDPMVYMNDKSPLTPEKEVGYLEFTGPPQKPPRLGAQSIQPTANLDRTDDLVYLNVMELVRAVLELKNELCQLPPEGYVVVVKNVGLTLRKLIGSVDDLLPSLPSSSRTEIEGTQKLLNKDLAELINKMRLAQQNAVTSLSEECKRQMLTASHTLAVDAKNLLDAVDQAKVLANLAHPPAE
Chain of Genome polyprotein (Q2Q167 whole entry): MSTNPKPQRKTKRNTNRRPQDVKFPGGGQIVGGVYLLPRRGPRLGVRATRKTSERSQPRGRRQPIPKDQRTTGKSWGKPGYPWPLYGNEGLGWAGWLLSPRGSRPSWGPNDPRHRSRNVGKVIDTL
Chain of ELAV-like protein 1 (Q15717 whole entry): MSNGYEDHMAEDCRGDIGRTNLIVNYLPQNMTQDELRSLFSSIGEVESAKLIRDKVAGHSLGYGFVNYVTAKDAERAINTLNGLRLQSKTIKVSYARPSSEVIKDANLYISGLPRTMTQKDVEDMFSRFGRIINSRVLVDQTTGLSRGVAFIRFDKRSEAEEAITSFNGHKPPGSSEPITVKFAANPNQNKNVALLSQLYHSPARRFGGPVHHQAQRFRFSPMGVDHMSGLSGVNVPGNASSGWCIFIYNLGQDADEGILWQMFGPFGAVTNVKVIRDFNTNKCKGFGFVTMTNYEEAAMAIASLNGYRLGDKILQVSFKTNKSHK
Chain of E3 ubiquitin-protein ligase Mdm2 (Q00987 whole entry): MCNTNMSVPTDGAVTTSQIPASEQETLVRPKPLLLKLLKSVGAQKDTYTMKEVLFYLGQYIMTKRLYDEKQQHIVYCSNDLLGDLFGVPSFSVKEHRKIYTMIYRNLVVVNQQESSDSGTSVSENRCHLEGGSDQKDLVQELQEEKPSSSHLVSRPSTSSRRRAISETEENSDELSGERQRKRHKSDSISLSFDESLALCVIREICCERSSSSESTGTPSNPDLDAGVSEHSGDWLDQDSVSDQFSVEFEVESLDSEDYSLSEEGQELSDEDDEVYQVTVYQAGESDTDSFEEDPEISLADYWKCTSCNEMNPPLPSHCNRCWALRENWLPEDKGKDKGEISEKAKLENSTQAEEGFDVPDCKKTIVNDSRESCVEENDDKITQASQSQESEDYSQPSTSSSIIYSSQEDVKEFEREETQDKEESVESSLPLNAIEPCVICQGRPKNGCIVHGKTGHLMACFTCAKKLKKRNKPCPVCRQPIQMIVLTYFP

Cc1cc(C(=O)OCC(=O)c2ccc(Cl)c([N+](=O)[O-])c2)c2cccc(C)c2n1
IC50 (Genome polyprotein): > 49.8 µM (not active)

CCOc1ccc(NC(=O)CN(C)S(=O)(=O)c2c[nH]cn2)cc1
EC50 [1]: 25 µM (not active)

CC1=CC(C)(C)Nc2ccc(OC(=O)c3cccnc3)cc21
EC50 [2]: 8.6 µM (active) | EC50 [3]: 8.23 µM (active) | EC50 [4]: 7.33 µM (active) | EC50 [5]: 5.85 µM (active) | IC50 [6]: 62.5 µM (inactive) | IC50 [7]: 3.22 µM (active) | CC50 [8]: 34.4 µM (active)

Cc1csc(C(C#N)C(=O)c2cc3ccccc3o2)n1 (stereo unspecified)
EC50 [9]: 1.46 µM (active) | EC50 [10]: < 0.1 µM (active) | EC50 [11]: 0.387 µM (active) | EC50 (H4): 3.63 µM (active) | EC50 [12]: 9.73 µM (active) | EC50 [13]: 0.926 µM (active)

CCOC(=O)c1csc(NC(=O)c2ccc(OCC)cc2)n1
IC50 [14]: 0.88 µM (active)

O=C(Nc1cccc([N+](=O)[O-])c1)c1ccc2ccccc2c1O
EC50 (HEK293 [15]): 3.05 µM (active) | IC50 (HEK293 [16]): 6.83 µM (active) | IC50 (HEK293 [17]): > 20 µM (inactive) | IC50 (HEK293 [18]): 6.08 µM (inactive) | IC50 (Tumor necrosis factor): 4.72 µM (active) | IC50 [19]: 4.36 µM (active) | IC50 (ELAV-like protein 1): 97.4 µM (inactive) | IC50 (HEK293 [20]): 13.2 µM (active)

Cc1oc(-c2ccccc2)cc1C(=O)Nc1cccc2ccccc12
IC50 [21]: > 69.5 µM (not active) | EC50 [22]: 18 µM (active)
